{
  "source": "patent US7696185B2",
  "about": "“Peptidomimetic inhibitors of PSMA, compounds comprising them, and methods of use” (Cancer Targered Technology LLC, priority 2006, dated 2010)",
  "key": {"purified PSMA": {"target": "T1, purified PSMA (Homo sapiens, UniProt Q04609)", "T1 construct": "against purified PSMA from LNCaP cells by our published method; endogenous in cells; host or cells: LNCaP cells", "T1 sequence (Q04609 whole entry)": "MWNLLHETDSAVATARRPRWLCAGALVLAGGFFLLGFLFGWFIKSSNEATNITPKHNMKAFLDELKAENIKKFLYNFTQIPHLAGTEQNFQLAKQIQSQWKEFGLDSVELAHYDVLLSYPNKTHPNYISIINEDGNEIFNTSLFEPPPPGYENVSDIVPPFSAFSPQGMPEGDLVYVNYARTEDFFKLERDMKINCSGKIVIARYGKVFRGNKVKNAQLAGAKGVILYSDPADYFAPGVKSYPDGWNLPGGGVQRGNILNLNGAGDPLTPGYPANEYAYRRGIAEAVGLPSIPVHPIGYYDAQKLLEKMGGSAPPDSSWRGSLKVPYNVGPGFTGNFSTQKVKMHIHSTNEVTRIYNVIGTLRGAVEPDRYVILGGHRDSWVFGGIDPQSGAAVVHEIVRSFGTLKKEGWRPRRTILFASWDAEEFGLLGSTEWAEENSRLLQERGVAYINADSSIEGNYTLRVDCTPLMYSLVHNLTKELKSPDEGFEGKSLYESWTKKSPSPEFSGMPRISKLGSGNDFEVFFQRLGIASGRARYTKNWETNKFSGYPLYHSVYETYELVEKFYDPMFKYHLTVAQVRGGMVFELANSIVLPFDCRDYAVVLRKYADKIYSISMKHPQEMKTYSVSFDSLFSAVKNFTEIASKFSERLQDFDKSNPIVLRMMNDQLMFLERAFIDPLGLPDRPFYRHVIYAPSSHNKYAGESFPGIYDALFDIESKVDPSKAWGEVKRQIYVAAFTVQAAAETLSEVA", "experiment": "PMSA Inhibition Assay (HPLC, PAB-Glu-γ-Glu substrate)", "format": "biochemical", "conditions": "for inhibitory potency / affinity for PSMA (in words): purified PSMA from LNCaP cells; for IC50: read-out: IC50 against PSMA", "method": "Adapted from, Maung, J.; Mallari, J. P.; Girtsman, T. A.; Wu, L. Y.; Rowley, J. A.; Santiago, N. M.; Brunelle, A.; Berkman, C. E. Probing for a Hydrophobic a Binding Register in Prostate-Specific Membrane Antigen with Phenylalkylphosphonamidates. […] Med. Chem. 2004, 12, 4969.\nWorking solutions of the substrate (N-[4-(phenylazo)benzoyl]-glutamyl-g-glutamic acid, PAB-Glu-γ-Glu) and all inhibitors were made in TRIS buffer (50 mM, pH 7.4). Working solutions of purified PSMA were appropriately diluted in TRIS buffer (50 mM, pH 7.4) to provide from 15% to 20% conversion of substrate to product in the absence of inhibitor. A typical incubation mixture (final volume 250 μL) was prepared by the addition of either 25 μL of an inhibitor solution or 25 μL TRIS buffer (50 mM, pH 7.4) to 175 μL TRIS buffer (50 mM, pH 7.4) in a test tube. A volume of the 25 μL PAB-Glu-γ-Glu (100 μM) was added to the above solution. The enzymatic reaction was initiated by the addition of 25 μL of the PSMA working solution. In all cases, the final concentration of PAB-Glu-γ-Glu was 10 μM while the enzyme was incubated with five serially-diluted inhibitor concentrations to provide a range of inhibition from 10% to 90% inhibition. The reaction was allowed to proceed for 15 min with constant shaking at 37° C. and was terminated by the addition of 25 μL methanolic TFA (2% trifluoroacetic acid by volume in methanol) followed by vortexing. The quenched incubation mixture was quickly buffered by the addition of 25 μL K2HPO4 (0.1 M), vortexed, and centrifuged (10 min at 7000 g). An 85 μL aliquot of the resulting supernatant was subsequently quantified by HPLC. IC50 values were calculated using KaleidaGraph 3.6 (Synergy Software).\nPABGγG and its hydrolytic product (PABG) were separated and quantified using an analytical reversed-phase HPLC column (Lichrosphere C18 5 μm, 150×4.6 mm; Phenomenex, Torrence, Calif.) with a mobile phase consisting of ACN/potassium phosphate [25 mM, pH 2.0 (adjusted with H3PO4)] at a respective volume ratio of 40:60."}, "PSMA [1]": {"target": "T2, PSMA (Homo sapiens, UniProt Q04609)", "T2 sequence (Q04609 whole entry)": "as above", "experiment": "Time-dependence and reversibility of PSMA inhibition (100-fold dilution of inhibited enzyme)", "format": "biochemical", "conditions": "for reversibility of PSMA inhibition: recovery of PSMA activity after 100-fold dilution of inhibited enzyme"}, "LNCaP cells": {"tested_on": "LNCaP cells", "experiment": "Fluorescence/confocal microscopy labeling of PSMA-expressing cells", "format": "cell-based", "conditions": "PSMA-expressing prostate cancer cells; fluorescence microscopy", "method": "(§1) These compounds have been subsequently derivatized with amine-reactive fluorescent dyes (FIG. 9) to specifically label PSMA-expressing prostate cancer cells. […] Confocal microscopy was conducted on both LNCaP and PC3 prostate cancer cells after treatment with L6-V1-21 and propidium iodide.\n(§2) While propidium iodide stained the nuclei of both cell lines, only the surface of the PSMA-expressing LNCaP 6 cells were fluorescently labeled with L6-V1-21. The intensely labeled sites on these LNCaP cells are hypothesized to be locations in which PSMA has aggregated.\n(§3) To confirm that LW-54-F5EX was specific for PSMA-expressing cells, both LNCaP and PC3 cells were treated with this compound. While DAPI (4′,6-diamidino-2-phenylindole) stained nuclear DNA in both cell lines, only LNCaP cells were fluorescently labeled with LW-54-F5EX.\n(§4) In that experiment, both LNCaP and PC3 cells were treated with LW-54-5FAMX. While DAPI (4′,6-diamidino-2-phenylindole) stained nuclear DNA in both cell lines, only LNCaP cells were fluorescently labeled with LW-54-5FAMX."}, "PC3 cells": {"tested_on": "PC3 cells", "experiment": "Fluorescence/confocal microscopy labeling of cells that do not express PSMA (negative control)", "format": "cell-based", "conditions": "fluorescence microscopy", "method": "as §1, §2, §3, §4"}, "PSMA [2]": {"target": "T2, PSMA", "experiment": "Inhibitor induced PSMA homodimer formation (Western blots)", "format": "biochemical", "conditions": "treatment of PSMA with inhibitor", "text": "As shown in the representative example in FIG. 6, covalent PSMA dimer formation mediated by T33 is both concentration dependent and time-dependent. […] Although we have not determined the mechanism of inhibition for T33, L36 and MP1D, it is clear that these agents represent a unique class of inhibitors of PSMA that may be used as covalent delivery vehicles specific for PSMA-expressing cancer cells. Based upon a cursory literature review, this is the first design and preparation of irreversible covalent modifiers of PSMA."}, "MMP-2": {"target": "T3, MMP-2 (Homo sapiens, UniProt P08253)", "T3 sequence (P08253 110-660)": "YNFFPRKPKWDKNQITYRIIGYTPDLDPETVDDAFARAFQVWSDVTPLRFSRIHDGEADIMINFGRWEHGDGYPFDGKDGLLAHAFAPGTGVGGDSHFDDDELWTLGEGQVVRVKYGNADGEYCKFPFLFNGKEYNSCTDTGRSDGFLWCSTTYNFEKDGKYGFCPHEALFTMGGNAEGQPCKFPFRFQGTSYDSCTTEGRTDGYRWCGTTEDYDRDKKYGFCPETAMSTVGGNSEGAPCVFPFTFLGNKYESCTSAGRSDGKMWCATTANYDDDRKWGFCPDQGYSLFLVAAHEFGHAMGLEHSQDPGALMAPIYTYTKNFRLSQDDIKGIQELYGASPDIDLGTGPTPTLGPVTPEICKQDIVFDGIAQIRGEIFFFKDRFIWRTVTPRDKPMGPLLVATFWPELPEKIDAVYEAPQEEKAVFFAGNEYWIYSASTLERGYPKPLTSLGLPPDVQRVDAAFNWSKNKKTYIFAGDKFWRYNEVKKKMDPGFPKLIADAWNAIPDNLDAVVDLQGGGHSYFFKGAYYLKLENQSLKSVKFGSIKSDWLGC", "experiment": "MMP-2 inhibition", "format": "biochemical", "conditions": "concentrations up to 10 μM"}, "[3]": {"target": "matrix metalloproteinase-9 (MMP-9) (Homo sapiens, UniProt P14780)", "sequence (P14780 94-707, species assumed)": "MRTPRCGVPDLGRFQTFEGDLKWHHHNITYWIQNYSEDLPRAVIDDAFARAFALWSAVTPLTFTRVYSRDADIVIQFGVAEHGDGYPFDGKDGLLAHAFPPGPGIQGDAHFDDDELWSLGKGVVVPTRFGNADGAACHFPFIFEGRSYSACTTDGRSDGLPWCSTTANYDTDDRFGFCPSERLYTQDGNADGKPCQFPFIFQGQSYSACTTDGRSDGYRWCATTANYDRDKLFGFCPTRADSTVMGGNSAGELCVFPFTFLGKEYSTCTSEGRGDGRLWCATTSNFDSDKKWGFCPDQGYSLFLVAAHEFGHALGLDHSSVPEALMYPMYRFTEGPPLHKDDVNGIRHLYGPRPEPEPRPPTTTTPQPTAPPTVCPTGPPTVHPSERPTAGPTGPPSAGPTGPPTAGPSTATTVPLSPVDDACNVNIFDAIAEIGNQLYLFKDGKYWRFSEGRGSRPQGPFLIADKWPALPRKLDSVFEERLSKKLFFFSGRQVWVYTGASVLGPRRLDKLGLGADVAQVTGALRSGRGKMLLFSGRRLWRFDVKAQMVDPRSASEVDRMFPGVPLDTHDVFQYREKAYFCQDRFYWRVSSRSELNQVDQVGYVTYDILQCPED", "experiment": "MMP-9 inhibition (specificity study)", "format": "biochemical", "conditions": "preliminary study; read-out: Ki against MMP-9", "method": "To determine that the design of the phosphoramidate inhibitors of the invention is specific to PSMA, a preliminary study was conducted with representative compounds from the T33 analog library (FIG. 1) with matrix metalloproteinase-9 (MMP-9). The MMP enzymes are zinc-dependent endopeptidases involved in the degradation of extracellular matrices."}},
  "data": [
    {"smiles": "O=C(O)CC[C@H](NP(=O)(O)OCCCCc1ccccc1)C(=O)O", "note": "[MP1D, N-[hydroxy(4-phenylbutoxy)phosphoryl]-L-glutamic acid]", "values": [
      {"measurement": "inhibitory potency / affinity for PSMA (in words)", "setting": "purified PSMA", "result": "considerable affinity is maintained"},
      {"measurement": "reversibility of PSMA inhibition", "setting": "PSMA [1]", "result": "irreversible inhibition"}
    ]},
    {"smiles": "O=C1C=CC2C(=C1)Oc1cc(O)ccc1C2c1ccc(NC(=S)N[C@@H](COP(=O)(O)N[C@@H](CCC(=O)O)C(=O)O)C(=O)O)cc1C(=O)O", "note": "(stereo partly drawn) [Compound L6-V1-21, N-[{(2S)-2-carboxy-2-[({[3-carboxy-4-(6-hydroxy-3-oxo-9,9a-dihydro-3H-xanthen-9-yl)phenyl]amino}carbonothioyl)amino]ethoxy} (hydroxy)phosphoryl]-L-glutamic acid]", "values": [
      {"measurement": "IC50", "setting": "purified PSMA", "result": 0.085, "unit": "µM"},
      {"measurement": "fluorescent labeling of LNCaP cells", "setting": "LNCaP cells", "result": "extensive cell-surface labeling"},
      {"measurement": "fluorescent labeling of PC3 cells", "setting": "PC3 cells", "result": "no green fluorescent labeling"}
    ]},
    {"smiles": "O=C1C=CC2C(=C1)Oc1cc(O)ccc1C2c1ccc(NC(=O)CSCCC(=O)N[C@@H](CCC(=O)N[C@@H](COP(=O)(O)N[C@@H](CCC(=O)O)C(=O)O)C(=O)O)C(=O)O)cc1C(=O)O", "note": "(stereo partly drawn) [LW-54-F5EX, N-{3-[(2-{[3-carboxy-4-(6-hydroxy-3-oxo-9,9a-di hydro-3H-xanthen-9-yl)phenyl]amino}-2-oxoethyl)thio]propanoyl}-L-γ-glutamyl -O-[{[(1S)-1,3-dicarboxypropyl]amino}(hydroxy)phosphoryl]-L-serine]", "values": [
      {"measurement": "fluorescent labeling of LNCaP cells", "setting": "LNCaP cells", "result": "extensive cell-surface labeling"},
      {"measurement": "fluorescent labeling of PC3 cells", "setting": "PC3 cells", "result": "no green fluorescent labeling"}
    ]},
    {"smiles": "NCc1ccc(C(=O)N[C@@H](COP(=O)(O)N[C@@H](CCC(=O)O)C(=O)O)C(=O)O)cc1", "note": "[LW-39, N-{[(2S)-2-{[4-(aminomethyl)benzoyl]amino}-2-carboxyethoxy](hydroxy)phosphoryl}-L-glutamic acid]", "values": [
      {"measurement": "reversibility of PSMA inhibition", "setting": "PSMA [1]", "result": "irreversible inhibitors"}
    ]},
    {"smiles": "CN(C(=O)c1ccccc1)[C@@H](COP(=O)(O)N[C@@H](CCC(=O)O)C(=O)O)C(=O)O", "note": "[Compound L36, N-[{(2S)-2-[benzoyl(methyl)amino]-2-carboxyethoxy} (hydroxy)phosphoryl]-L-glutamic acid]", "values": [
      {"measurement": "inhibitory potency / affinity for PSMA (in words)", "setting": "purified PSMA", "result": "superior inhibitory potency"},
      {"measurement": "reversibility of PSMA inhibition", "setting": "PSMA [1]", "result": "irreversible"},
      {"measurement": "covalent PSMA homodimer formation", "setting": "PSMA [2]", "result": "formation of covalent PSMA homodimers"}
    ]},
    {"smiles": "O=C(O)CC[C@H](NP(=O)(O)OC[C@H](NC(=O)c1ccccc1)C(=O)O)C(=O)O", "note": "[Compound T33, N-{[(2S)-2-(benzoylamino) -2-carboxyethoxy](hydroxy)phosphoryl}-L-glutamic acid]", "values": [
      {"measurement": "inhibitory potency / affinity for PSMA (in words)", "setting": "purified PSMA", "result": "superior inhibitory potency"},
      {"measurement": "IC50", "setting": "purified PSMA", "result": "< 0.05", "unit": "µM"},
      {"measurement": "time-dependence of PSMA inhibition", "setting": "PSMA [1]", "result": "time-dependent PSMA inhibition"},
      {"measurement": "reversibility of PSMA inhibition", "setting": "PSMA [1]", "result": "irreversible"},
      {"measurement": "covalent PSMA homodimer formation", "setting": "PSMA [2]", "result": "formation of covalent PSMA homodimers"},
      {"measurement": "inhibition of MMP-2", "setting": "MMP-2", "result": "no inhibition"}
    ]},
    {"smiles": "O=C(O)CC[C@H](NP(=O)(O)OCC(CCc1ccccc1)C(=O)O)C(=O)O", "note": "(stereo partly drawn) [MP1E, N-[(2-carboxy-4-phenylbutoxy)(hydroxy)phosphoryl] -L-glutamic acid]", "values": [
      {"measurement": "reversibility of PSMA inhibition", "setting": "PSMA [1]", "result": "irreversible"}
    ]},
    {"smiles": "O=C(O)CC[C@H](NP(=O)(O)OCc1ccc(-c2ccccc2)cc1)C(=O)O", "note": "[NC-2-29, N-[(biphenyl-4-ylmethoxy) (hydroxy)phosphoryl]-L-glutamic acid]", "values": [
      {"measurement": "Ki", "setting": "[3]", "result": 5000, "unit": "µM"}
    ]}
  ]
}
